Earlier results on 9 molecules are cited in PubChem BioAssay AID1259410 (Chemical Carcinogenesis Research Information System (CCRIS), 2018).

This data set concerns rodent tumor promotion studies, tumor incidence. Nature of the data set: CCRIS tumor promotion studies.

Square brackets hold non-standard residues; d marks the D form. Peptide text beside a SMILES is read from it. sY = N[C@@H](Cc1ccc(OS(=O)(=O)O)cc1)C(=O)O; pGlu = O=C1CC[C@@H](C(=O)O)N1

For `O=C1NS(=O)(=O)c2ccccc21`, the outcome reads like this: (Carcinogen: FREEZE ULCERATION, Doses [Promoter]: 0, 5% IN DIET BEGINNING IMMEDIATELY, 2, 4, 6 OR 18 WK AFTER ULCERATION OF THE BLADDER BY FREEZING AND CONTINUING FOR DUR, Route [Promoter]: ORAL, Species: RAT, Strain/Sex: F344/MALE) “urinary bladder: transitional cell carcinoma”; (Carcinogen: METHYLNITROSOUREA, Doses [Carcinogen]: BLADDER IMP, Doses [Promoter]: IN DIET, Route [Carcinogen]: BLADDER IMPLANT, Route [Promoter]: ORAL, Species: RAT, Strain/Sex: WISTAR/FEMALE) “urinary bladder”; (Carcinogen: N-(4-(5-NITRO-2-FURYL)-2-THIAZOLYL)FORMAMIDE, 24554-26-5, Doses [Carcinogen]: 0.2% IN AIN-76A DIET FOR 4 WK, Doses [Promoter]: 0, 5% IN PROLAB DIET BEGINNING 1 WK POST CARCINOGEN TREATMENT AND CONTINUING FOR 100 WK (STUDY DURATION: 105 WK), Route [Carcinogen]: ORAL, Route [Promoter]: ORAL, Species: RAT, Strain/Sex: F344/MALE) “bladder: papilloma and carcinoma”; (Carcinogen: N-(4-(5-NITRO-2-FURYL)-2-THIAZOLYL)FORMAMIDE, 24554-26-5, Doses [Carcinogen]: 0.2% IN PROLAB DIET FOR 4 WK, Doses [Promoter]: 0, 5% IN PROLAB DIET BEGINNING 1 WK POST CARCINOGEN TREATMENT AND CONTINUING FOR 100 WK (STUDY DURATION: 105 WK), Route [Carcinogen]: ORAL, Route [Promoter]: ORAL, Species: RAT, Strain/Sex: F344/MALE) “bladder: papilloma and carcinoma”; (Carcinogen: N-(4-(5-NITRO-2-FURYL)-2-THIAZOLYL)FORMAMIDE, Doses [Carcinogen]: DIET, Doses [Promoter]: IN DIET, Route [Carcinogen]: ORAL, Route [Promoter]: ORAL, Species: RAT, Strain/Sex: F344/MALE) “urinary bladder: carcinoma”; (Carcinogen: N-BUTYL-N-4(HYDROXYBUTYL)NITROSAMINE, 3817-11-6, Doses [Carcinogen]: 0.05% IN DRINKING WATER FOR 2 WK, Doses [Promoter]: 0, 5% IN DIET STARTING POST CARCINOGEN AND CONTINUING FOR 22 WK, LEFT URETER LIGATED 8 D POST CARCINOGEN (STUDY DURATION, Route [Carcinogen]: ORAL, Route [Promoter]: ORAL, Species: RAT, Strain/Sex: F344/MALE) “bladder: papilloma”. The outcome (Carcinogen: N-BUTYL-N-(4-HYDROXYBUTYL)NITROSAMINE, 3817-11-6, Doses [Carcinogen]: 0.05% IN DRINKING WATER FOR 4 WK, Doses [Promoter]: 0, 5% IN DIET FOR 32 WK POST CARCINOGEN DOSE (STUDY DURATION: 36 WK), Route [Carcinogen]: ORAL, Route [Promoter]: ORAL, Species: RAT, Strain/Sex: F344/MALE) is recorded as “bladder: carcinoma or papilloma”; the outcome (Carcinogen: N-[4-(5-NITRO-2-FURYL)-2-THIAZOLYL]FORMAMIDE, 24554-26-5, Doses [Carcinogen]: 0.2% IN DIET FOR 6 WK, Doses [Promoter]: 0, 5% IN PROLAB DIET FOR 72 WK BEGINNING POST CARCINOGEN TREATMENT (STUDY DURATION: 78 WK), Route [Carcinogen]: ORAL, Route [Promoter]: ORAL, Species: RAT, Strain/Sex: F344/MALE) was “urinary bladder: carcinoma, carcinoma or papilloma”; the outcome (Carcinogen: N-[4-(5-NITRO-2-FURYL)-2-THIAZOLYL]FORMAMIDE, Doses [Carcinogen]: 0.2% IN DIET FOR 6 WK, Doses [Promoter]: 0, 3% IN PROLAB DIET FOR 72 WK BEGINNING POST CARCINOGEN TREATMENT (STUDY DURATION: 78 WK), Route [Carcinogen]: ORAL, Route [Promoter]: ORAL, Species: RAT, Strain/Sex: F344/MALE) is reported as “urinary bladder: carcinoma, carcinoma or papilloma”.

With `Nc1nc(-c2ccccc2)c(-c2ccccc2)s1`, the outcome by setting is: (Carcinogen: N-ETHYL-N-HYDROXYETHYLNITROSAMINE, 13147-25-6, Doses [Carcinogen]: 1000 PPM IN DRINKING WATER FOR 2 WK, Doses [Promoter]: 0, 1.06% IN DIET FOR 14 WK BEGINNING POST CARCINOGEN TREATMENT (STUDY DURATION: 32 WK), Route [Carcinogen]: ORAL, Route [Promoter]: ORAL, Species: RAT, Strain/Sex: WISTAR/MALE) “kidney: renal cell tumor”; (Carcinogen: N-ETHYL-N-HYDROXYETHYLNITROSAMINE, 13147-25-6, Doses [Carcinogen]: 1000 PPM IN DRINKING WATER FOR 2 WK, Doses [Promoter]: 0, 1.06% IN DIET FOR 30 WK BEGINNING POST CARCINOGEN TREATMENT (STUDY DURATION: 32 WK), Route [Carcinogen]: ORAL, Route [Promoter]: ORAL, Species: RAT, Strain/Sex: WISTAR/MALE) “kidney: renal cell tumor”.

In the case of `CSCC[C@H](NC(=O)[C@H](Cc1c[nH]c2ccccc12)NC(=O)CNC(=O)[C@@H](NC(=O)[C@H](Cc1ccc(OS(=O)(=O)O)cc1)NC(=O)[C@H](CC(=O)O)NC(=O)[C@H](CCC(N)=O)NC(=O)[C@@H]1CCC(=O)N1)[C@@H](C)O)C(=O)N[C@@H](CC(=O)O)C(=O)N[C@@H](Cc1ccccc1)C(N)=O` ([pGlu]QD[sY]TGWMDF-NH2), the outcome (Carcinogen: 7,12-DIMETHYLBENZ[A]ANTHRACENE, 57-97-6, Doses [Carcinogen]: 2-3 MG ONCE, Doses [Promoter]: 0, 5 UG/KG 2/D FOR 15 D POST CARCINOGEN TREATMENT (STUDY DURATION: 6 MO), Route [Carcinogen]: PANCREATIC IMPLANT, Route [Promoter]: SUBCUTANEOUS, Species: RAT, Strain/Sex: SPRAGUE-DAWLEY/MALE) is “pancreas: carcinoma”; the outcome (Carcinogen: N-METHYL-N'-NITRO-N-NITROSOGUANIDINE, 70-25-7, Doses [Carcinogen]: 50 UG/ML IN DRINKING WATER FOR 20 WK, Doses [Promoter]: 0, 10 UG/KG IN OLIVE OIL 1/2 D FOR 20 WK BEGINNING 3 D AFTER CARCINOGEN DOSE (STUDY DURATION: 52 WK), Route [Carcinogen]: ORAL, Route [Promoter]: SUBCUTANEOUS, Species: RAT, Strain/Sex: WISTAR/MALE) was “glandular stomach: adenocarcinoma”; the outcome (Carcinogen: N-METHYL-N'-NITRO-N-NITROSOGUANIDINE, 70-25-7, Doses [Carcinogen]: 50 UG/ML IN DRINKING WATER FOR 25 WK, Doses [Promoter]: 2 UG/KG IN OLIVE OIL 1/2 D FOR 27 WK ADMINISTERED POST CARCINOGEN DOSE (STUDY DURATION: 52 WK), Route [Carcinogen]: ORAL, Route [Promoter]: SUBCUTANEOUS, Species: RAT, Strain/Sex: WISTAR/MALE) is listed as “stomach: adenocarcinoma”.

With `CCC1(CC)C(=O)NC(=O)NC1=O`, the outcome (Carcinogen: DIETHYLNITROSAMINE, 55-18-5, Doses [Carcinogen]: 80 MG/KG BW ONCE, Doses [Promoter]: 0, 0.5% IN DIET FOR 39 WK BEGINNING 1 WK POST CARCINOGEN DOSE (STUDY DURATION: 40 WK), Route [Carcinogen]: INTRAPERITONEAL, Route [Promoter]: ORAL, Species: RAT, Strain/Sex: F344/MALE) is “liver: tumor”.

For `C[C@H](N)[C@H](O)c1cccc(O)c1`, the outcome (Carcinogen: N-METHYL-N'-NITRO-N-NITROSOGUANADINE, 70-25-7, Doses [Carcinogen]: 25 UG/ML IN DRINKING WATER FOR 20 WK, Doses [Promoter]: 0, 5 MG/KG BW IN OLIVE OIL 1/2 D BEGINNING POST CARCINOGEN TREATMENT (STUDY DURATION: 52 WK), Route [Carcinogen]: ORAL, Route [Promoter]: SUBCUTANEOUS, Species: RAT, Strain/Sex: WISTAR/MALE) was “stomach: adenocarcinoma”.

For `O=C(O)C(Cl)(Cl)Cl`, the outcome by setting is: (Carcinogen: N-METHYL-N-NITROSOUREA, 684-93-5, Doses [Carcinogen]: 25 MG/KG IN STERILE SALINE ONCE, Doses [Promoter]: 0, 25 MMOL/L IN DRINKING WATER FOR 44 WK BEGINNING 2 WK POST CARCINOGEN DOSE (STUDY DURATION: 46 WK), Route [Carcinogen]: INTRAPERITONEAL, Route [Promoter]: ORAL, Species: MOUSE, Strain/Sex: B6C3F1/FEMALE) “liver: adenoma”; (Carcinogen: N-METHYL-N-NITROSOUREA, 684-93-5, Doses [Carcinogen]: 25 MG/KG ONCE AT 15 D OF AGE, Doses [Promoter]: 0, 20 NMOL/L IN DRINKING WATER FOR 31 WK BEGINNING AT 7 WK OF AGE (STUDY DURATION: 31 WK), Route [Carcinogen]: INTRAPERITONEAL, Route [Promoter]: ORAL, Species: MOUSE, Strain/Sex: B6C3F1/FEMALE) “liver: adenoma”; (Carcinogen: N-METHYL-N-NITROSOUREA, 684-93-5, Doses [Carcinogen]: 25 MG/KG ONCE AT 15 D OF AGE, Doses [Promoter]: 0, 20 NMOL/L IN DRINKING WATER FOR 31 WK BEGINNING AT 7 WK OF AGE (STUDY DURATION: 52 WK), Route [Carcinogen]: INTRAPERITONEAL, Route [Promoter]: ORAL, Species: MOUSE, Strain/Sex: B6C3F1/FEMALE) “liver: adenoma, carcinoma”; (Carcinogen: N-METHYL-N-NITROSOUREA, 684-93-5, Doses [Carcinogen]: 25 MMG/KG ONCE AT 15 D OF AGE, Doses [Promoter]: 0, 6.67, 20 NMOL/L IN DRINKING WATER FOR 52 WK BEGINNING AT 7 WK OF AGE (STUDY DURATION: 52 WK), Doses [Promoter]: 0, 6.67, 20 NMOL/L IN DRINKING WATER FOR 52 WK BEGINNING AT 7 WK OF AGE (STUDY DURATION: 52 WK), Route [Carcinogen]: INTRAPERITONEAL, Route [Promoter]: ORAL, Species: MOUSE, Strain/Sex: B6C3F1/FEMALE) “liver: adenoma, carcinoma”.

`C1COCCO1`: the outcome (Carcinogen: 7,12-DIMETHYLBENZ(A)ANTHRACENE, Doses [Carcinogen]: TOP, Route [Carcinogen]: DERMAL, Route [Promoter]: DERMAL, Species: MOUSE, Strain/Sex: MALE,FEMALE) was “integumentary system (skin)”.

Regarding `CCCCCCCCCCCCCCCCCC(=O)OCCOC[C@@H](OCCO)[C@H]1OC[C@@H](OCCO)[C@@H]1OCCO`, the outcome (Carcinogen: 7,12-DIMETHYLBENZ(A)ANTHRACENE, Doses [Carcinogen]: TOP, Route [Carcinogen]: DERMAL, Route [Promoter]: DERMAL, Species: MOUSE, Strain/Sex: MALE) is reported as “integumentary system (skin)”.

With `Oc1cc(O)c2c(c1)O[C@H](c1ccc(O)c(O)c1)[C@@H](O)C2`, under “Carcinogen: N-METHYL-N'-NITRO-N-NITROSOGUANIDINE, 70-25-7, Doses [Carcinogen]: 150 MG/KG BW ONCE, Doses [Promoter]: 0, 0.8% IN DIET FOR 51 D BEGINNING 1 WK POST CARCINOGEN DOSE (STUDY DURATION: 52 WK), Route [Carcinogen]: GAVAGE, Route [Promoter]: ORAL, Species: RAT, Strain/Sex: F344/MALE”, the outcome is recorded as “forestomach: carcinoma; glandular stomach: adenocarcinoma”.
